# Results taken from ChEMBL document CHEMBL2040800 (J Med Chem, 2012).
# Active and inactive are the calls of the source. The rule behind the calls is not given here.
# Columns and labels:
# Plasmodium berghei [1] = assay: Antimalarial activity against Plasmodium berghei ANKA expressing GFP infected in Sprague-Dawley rat assessed as mean survival days of host at 30 mg/kg, po administered as single dose; type: functional
# [2] = Half life in human liver microsomes at 1 uM; type: ADME, Microsome
# Plasmodium berghei [3] = assay: Antimalarial activity against Plasmodium berghei ANKA expressing GFP infected in Sprague-Dawley rat assessed as reduction in parasitemia at 50 mg/kg, po administered as 4 doses measured on day 4 post-infection by flow cytometry; type: functional; parameters: scale not given: the % may be the effect or the level left
# Plasmodium falciparum [4] = assay: Antimalarial activity against chloroquine-resistant Plasmodium falciparum K1 after 24 hrs by hypoxanthine incorporation assay; type: functional, organism-based; details: K1, 24 h
# Plasmodium berghei [5] = assay: Antimalarial activity against Plasmodium berghei ANKA expressing GFP infected in Sprague-Dawley rat assessed as reduction in parasitemia at 3 mg/kg, po administered as single dose measured on day 3 post-infection by flow cytometry; type: functional; parameters: scale not given: the % may be the effect or the level left
# [6] = Solubility of the compound at 10 uM; type: physicochemical
# [7] = Kinetic solubility of the compound in phosphate buffer after 30 mins by nephelometry at pH 6.5; type: physicochemical; details: read-out: Kinetic_solubility
# Plasmodium berghei [8] = assay: Antimalarial activity against Plasmodium berghei ANKA expressing GFP infected in Sprague-Dawley rat assessed as reduction in parasitemia at 10 mg/kg, po administered as single dose measured on day 3 post-infection by flow cytometry; type: functional; parameters: scale not given: the % may be the effect or the level left
# Plasmodium berghei [9] = assay: Antimalarial activity against Plasmodium berghei ANKA expressing GFP infected in Sprague-Dawley rat assessed as total cure from parasite at 30 mg/kg, po administered as single dose measured on day 30 post-infection by flow cytometry; type: functional, organism-based; parameters: dose 30 mg/kg
# Cytochrome P450 2C9 = Cytochrome P450 2C9 (Homo sapiens, UniProt P11712); assay: Inhibition of CYP2C9-mediated tolbutamide methylhydroxylation in human liver microsomes; type: ADME, Microsome
# [10] = Apparent terminal half life in Sprague-Dawley rat at 20.2 mg/kg, po; type: ADME, organism-based; parameters: dose 20.2 mg/kg, route oral; details: in vivo, read-out: betat1/2(app) (converted)
# Plasmodium berghei [11] = assay: Antimalarial activity against Plasmodium berghei ANKA expressing GFP infected in Sprague-Dawley rat assessed as total cure from parasite at 50 mg/kg, po administered as 4 doses measured on day 30 post-infection by flow cytometry; type: functional, organism-based; parameters: dose 50 mg/kg
# Plasmodium berghei [12] = assay: Antimalarial activity against Plasmodium berghei ANKA expressing GFP infected in po dosed Sprague-Dawley rat assessed as reduction in parasitemia administered as single dose measured on day 3 post-infection by flow cytometry; type: functional; details: 72 h
# Cytochrome P450 2C19 = Cytochrome P450 2C19 (Homo sapiens, UniProt P33261); assay: Inhibition of CYP2C19-mediated (S)-mephenytoin 4'-hydroxylation in human liver microsomes; type: ADME, Microsome
# L6 = assay: Cytotoxicity against rat L6 cells after 72 hrs by alamar blue assay; type: cell-based; details: l6, 72 h
# Plasmodium berghei [13] = assay: Antimalarial activity against Plasmodium berghei ANKA expressing GFP infected in Sprague-Dawley rat assessed as reduction in parasitemia at 100 mg/kg, po administered as single dose measured on day 3 post-infection by flow cytometry; type: functional; parameters: scale not given: the % may be the effect or the level left
# [14] = Toxicity in rabbit ventricular wedge assessed as change in TP-e at 2 uM; type: tissue-based, Oryctolagus cuniculus, Cardiac ventricle
# [15] = AUC (0 to infinity) in Sprague-Dawley rat at 3.2 mg/kg, iv; type: ADME, organism-based; parameters: time infinity, dose 3.2 mg/kg, route intravenous; details: plasma
# Cytochrome P450 2D6 = Cytochrome P450 2D6 (Homo sapiens, UniProt P10635); assay: Inhibition of CYP2D6-mediated dextromethorphan O-demethylation in human liver microsomes; type: ADME, Microsome
# [16] = Cmax in Sprague-Dawley rat at 20.2 mg/kg, po; type: ADME, organism-based; parameters: dose 20.2 mg/kg, route oral; details: in vivo
# [17] = Toxicity in rabbit ventricular wedge assessed as change in QT at 2 uM; type: tissue-based, Oryctolagus cuniculus, Cardiac ventricle
# Plasmodium berghei [18] = assay: Antimalarial activity against Plasmodium berghei ANKA expressing GFP infected in Sprague-Dawley rat assessed as mean survival days of host at 3 mg/kg, po administered as single dose; type: functional
# Plasmodium berghei [19] = assay: Antimalarial activity against Plasmodium berghei ANKA expressing GFP infected in Sprague-Dawley rat assessed as mean survival days of host at 50 mg/kg, po administered as 4 doses; type: functional
# Plasmodium berghei [20] = assay: Antimalarial activity against Plasmodium berghei ANKA expressing GFP infected in Sprague-Dawley rat assessed as reduction in parasitemia at 30 mg/kg, po administered as single dose measured on day 3 post-infection by flow cytometry; type: functional; parameters: scale not given: the % may be the effect or the level left
# Salmonella typhimurium = assay: Genotoxicity in Salmonella typhimurium by Ames test; type: toxicity, organism-based; details: salmonella enterica subsp. enterica serovar typhimurium
# Plasmodium berghei [21] = assay: Antimalarial activity against Plasmodium berghei ANKA expressing GFP infected in Sprague-Dawley rat assessed as mean survival days of host at 100 mg/kg, po administered as single dose; type: functional
# Plasmodium berghei [22] = assay: Antimalarial activity against Plasmodium berghei ANKA expressing GFP infected in Sprague-Dawley rat assessed as mean survival days of host at 10 mg/kg, po administered as single dose; type: functional
# [23] = Oral bioavailability in Sprague-Dawley rat at 20.2 mg/kg; type: ADME, organism-based; details: in vivo
# [24] = Plasma protein binding in human by reverse phase gradient HPLC analysis; type: ADME, cell-free; details: read-out: PPB (converted)
# [25] = Volume of distribution at steady state in Sprague-Dawley rat at 3.2 mg/kg, iv; type: ADME, organism-based; parameters: dose 3.2 mg/kg, route intravenous; details: plasma, read-out: Vdss
# [26] = Apparent terminal half life in Sprague-Dawley rat at 3.2 mg/kg, iv; type: ADME, organism-based; parameters: dose 3.2 mg/kg, route intravenous; details: in vivo, read-out: betat1/2(app) (converted)
# [27] = Tmax in Sprague-Dawley rat at 20.2 mg/kg, po; type: ADME, organism-based; parameters: dose 20.2 mg/kg, route oral; details: in vivo
# [28] = Intrinsic clearance in human liver microsomes at 1 uM up to 60 mins; type: ADME, Microsome; details: read-out: CLH
# [29] = Toxicity in rabbit ventricular wedge assessed as change in […] at 2 uM; type: tissue-based, Oryctolagus cuniculus, Cardiac ventricle
# Plasmodium berghei [30] = assay: Antimalarial activity against Plasmodium berghei ANKA expressing GFP infected in Sprague-Dawley rat assessed as total cure from parasite at 100 mg/kg, po administered as single dose measured on day 30 post-infection by flow cytometry; type: functional, organism-based; parameters: dose 100 mg/kg
# Cytochrome P450 1A2 = target: T1, Cytochrome P450 1A2 (Homo sapiens, UniProt P05177); assay: Inhibition of CYP1A2-mediated phenacetin O-deethylation in human liver microsomes; type: ADME, Microsome
# T1 sequence (P05177 whole entry): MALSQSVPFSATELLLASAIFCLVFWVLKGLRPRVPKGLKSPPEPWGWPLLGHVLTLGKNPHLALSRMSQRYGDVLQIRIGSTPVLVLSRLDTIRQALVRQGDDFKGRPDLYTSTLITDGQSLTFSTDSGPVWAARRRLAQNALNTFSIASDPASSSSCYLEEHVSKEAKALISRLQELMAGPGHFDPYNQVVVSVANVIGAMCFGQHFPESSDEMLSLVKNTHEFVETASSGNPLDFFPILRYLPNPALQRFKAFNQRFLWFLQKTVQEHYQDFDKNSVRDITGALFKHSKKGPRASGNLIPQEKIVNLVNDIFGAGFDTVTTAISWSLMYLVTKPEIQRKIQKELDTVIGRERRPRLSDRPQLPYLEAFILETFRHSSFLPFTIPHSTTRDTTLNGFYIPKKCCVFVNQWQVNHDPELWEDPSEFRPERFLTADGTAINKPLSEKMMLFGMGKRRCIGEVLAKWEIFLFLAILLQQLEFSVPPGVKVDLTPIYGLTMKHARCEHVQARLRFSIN
# [31] = Total plasma clearance in Sprague-Dawley rat at 3.2 mg/kg, iv; type: ADME, organism-based; parameters: dose 3.2 mg/kg, route intravenous
# Cytochrome P450 3A4/3A5 = Cytochrome P450 3A4/3A5 (Homo sapiens, UniProt P08684+P20815); assay: Inhibition of CYP3A4/CYP3A5-mediated testosterone 6beta-hydroxylation in human liver microsomes; type: ADME, Microsome
# [32] = AUC (0 to infinity) in Sprague-Dawley rat at 20.2 mg/kg, po; type: ADME, organism-based; parameters: time infinity, dose 20.2 mg/kg, route oral; details: plasma
# [33] = Partition coefficient, log D of the compound at pH 7.4 by phase gradient HPLC analysis; type: physicochemical; details: octanol/water
# [34] = AUC (0 to infinity) in Sprague-Dawley rat at 21.7 mg/kg, po; type: ADME, organism-based; parameters: time infinity, dose 21.7 mg/kg, route oral; details: plasma
# [35] = AUC (0 to infinity) in Sprague-Dawley rat at […], iv; type: ADME, organism-based; parameters: time infinity, dose 4.7 mg/kg, route intravenous; details: plasma
# [36] = Total plasma clearance in Sprague-Dawley rat at […], iv; type: ADME, organism-based; parameters: dose 4.7 mg/kg, route intravenous
# [37] = Tmax in Sprague-Dawley rat at 21.7 mg/kg, po; type: ADME, organism-based; parameters: dose 21.7 mg/kg, route oral; details: in vivo
# [38] = Oral bioavailability in Sprague-Dawley rat at 21.7 mg/kg; type: ADME, organism-based; details: in vivo
# Rattus norvegicus [39] = assay: Toxicity in Sprague-Dawley rat assessed as impaired coordination at 50 mg/kg, po administered as 4 doses measured post-third dose; type: organism-based; parameters: dose 50 mg/kg, route oral; details: in vivo
# [40] = Apparent terminal half life in Sprague-Dawley rat at […], iv; type: ADME, organism-based; parameters: dose 4.7 mg/kg, route intravenous; details: in vivo, read-out: betat1/2(app) (converted)
# [41] = Apparent terminal half life in Sprague-Dawley rat at 21.7 mg/kg, po; type: ADME, organism-based; parameters: dose 21.7 mg/kg, route oral; details: in vivo, read-out: betat1/2(app) (converted)
# Rattus norvegicus [42] = assay: Toxicity in Sprague-Dawley rat assessed as impaired coordination at 30 mg/kg, po administered as single dose; type: organism-based; parameters: dose 30 mg/kg, route oral; details: in vivo
# [43] = Cmax in Sprague-Dawley rat at 21.7 mg/kg, po; type: ADME, organism-based; parameters: dose 21.7 mg/kg, route oral; details: in vivo
# [44] = Volume of distribution at steady state in Sprague-Dawley rat at […], iv; type: ADME, organism-based; parameters: dose 4.7 mg/kg, route intravenous; details: in vivo, read-out: Vdss
# Plasmodium falciparum [45] = assay: Antimalarial activity against chloroquine-sensitive Plasmodium falciparum NF54 after 24 hrs by hypoxanthine incorporation assay; type: functional, organism-based; details: NF54, 24 h
# Cytochrome P450 2D6, sequence (P10635 whole entry): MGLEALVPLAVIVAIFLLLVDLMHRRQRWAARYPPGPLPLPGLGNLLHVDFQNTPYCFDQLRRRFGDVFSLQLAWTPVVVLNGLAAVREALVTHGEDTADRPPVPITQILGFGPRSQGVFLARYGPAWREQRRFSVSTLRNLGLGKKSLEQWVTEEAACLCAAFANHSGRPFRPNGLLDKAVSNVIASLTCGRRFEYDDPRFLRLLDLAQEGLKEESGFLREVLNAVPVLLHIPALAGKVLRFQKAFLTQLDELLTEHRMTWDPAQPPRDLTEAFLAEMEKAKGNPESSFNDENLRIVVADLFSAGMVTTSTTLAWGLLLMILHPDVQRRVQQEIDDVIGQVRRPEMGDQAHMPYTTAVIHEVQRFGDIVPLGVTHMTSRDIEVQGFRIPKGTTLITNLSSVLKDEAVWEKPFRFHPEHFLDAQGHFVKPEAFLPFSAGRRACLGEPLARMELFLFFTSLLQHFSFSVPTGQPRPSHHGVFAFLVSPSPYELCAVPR
# Cytochrome P450 2C9, sequence (P11712 whole entry): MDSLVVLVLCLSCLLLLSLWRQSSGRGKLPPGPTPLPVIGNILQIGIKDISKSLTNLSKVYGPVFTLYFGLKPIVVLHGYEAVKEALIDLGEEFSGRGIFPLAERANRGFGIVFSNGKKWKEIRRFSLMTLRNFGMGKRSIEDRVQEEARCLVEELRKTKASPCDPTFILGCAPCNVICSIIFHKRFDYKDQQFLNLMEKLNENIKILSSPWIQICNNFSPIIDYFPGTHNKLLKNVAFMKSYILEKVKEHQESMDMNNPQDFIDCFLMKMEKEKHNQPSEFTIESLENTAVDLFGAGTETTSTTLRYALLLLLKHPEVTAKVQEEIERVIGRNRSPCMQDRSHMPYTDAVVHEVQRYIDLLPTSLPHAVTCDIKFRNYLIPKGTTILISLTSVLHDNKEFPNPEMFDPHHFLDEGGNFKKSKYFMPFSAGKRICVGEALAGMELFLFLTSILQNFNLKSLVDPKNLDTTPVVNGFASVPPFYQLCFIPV
# Cytochrome P450 2C19, sequence (P33261 whole entry): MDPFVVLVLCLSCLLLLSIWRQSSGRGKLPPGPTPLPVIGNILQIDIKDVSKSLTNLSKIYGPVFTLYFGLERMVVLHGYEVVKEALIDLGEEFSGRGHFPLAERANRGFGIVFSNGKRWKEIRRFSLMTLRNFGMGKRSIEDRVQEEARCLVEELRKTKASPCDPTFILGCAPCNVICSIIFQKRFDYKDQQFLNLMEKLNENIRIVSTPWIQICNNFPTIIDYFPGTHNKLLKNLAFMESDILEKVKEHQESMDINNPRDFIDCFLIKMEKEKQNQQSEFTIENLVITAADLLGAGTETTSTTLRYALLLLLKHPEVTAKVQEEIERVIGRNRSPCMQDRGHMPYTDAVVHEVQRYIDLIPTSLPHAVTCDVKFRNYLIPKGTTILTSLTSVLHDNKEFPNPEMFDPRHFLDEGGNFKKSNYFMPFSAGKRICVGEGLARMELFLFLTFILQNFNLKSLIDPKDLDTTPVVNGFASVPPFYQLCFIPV
smiles,measurement,setting,value
CS(=O)(=O)c1ccc(-c2cnc(N)c(-c3ccc(C(F)(F)F)nc3)c2)cc1 [MMV-048],MSD,Plasmodium berghei [1],>30 days
same,half-life at 1 µM,[2],> 8.33 h
same,Activity,Plasmodium berghei [3],99.7%
same,IC50,Plasmodium falciparum [4],25 nM
same,Activity,Plasmodium berghei [5],98%
same,solubility,[6],Insoluble
same,solubility kinetic at 0.5 h,[7],6.3 µg/mL
same,Activity,Plasmodium berghei [8],98%
same,Activity,Plasmodium berghei [9],Active
same,INH,Cytochrome P450 2C9,> 20 µM
same,half-life,[10],8.5 h
same,Activity,Plasmodium berghei [11],Active
same,ED50,Plasmodium berghei [12],0.83 mg/kg
same,ED90,Plasmodium berghei [12],1.7 mg/kg
same,INH,Cytochrome P450 2C19,> 20 µM
same,Activity,L6,251.4 µM
same,Activity,Plasmodium berghei [13],99.5%
same,Activity,[14],Non-toxic
same,AUC(0-inf),[15],23.4 µM·h
same,INH,Cytochrome P450 2D6,> 20 µM
same,Cmax,[16],8 µM
same,Activity,[17],Non-toxic
same,MSD,Plasmodium berghei [18],8 days
same,MSD,Plasmodium berghei [19],>30 days
same,Activity,Plasmodium berghei [20],99.3%
same,Activity,Salmonella typhimurium,Non-toxic
same,MSD,Plasmodium berghei [21],>30 days
same,MSD,Plasmodium berghei [22],13 days
same,bioavailability,[23],51%
same,fraction unbound,[24],0.139
same,Vd,[25],2.7 L/kg
same,half-life,[26],7.3 h
same,Tmax,[27],2.5 h
same,microsomal CLint at 1 µM,[28],< 1.4 µL/min/mg
same,Activity,[29],Non-toxic
same,Activity,Plasmodium berghei [30],Active
same,INH,Cytochrome P450 1A2,> 20 µM
same,clearance,[31],6.5 mL/min/kg
same,INH,Cytochrome P450 3A4/3A5,> 20 µM
same,AUC(0-inf),[32],74.2 µM·h
same,chromatographic logD,[33],2.6
CS(=O)(=O)c1ccc(-c2cnc(N)c(-c3ccc(C(F)(F)F)cc3)c2)cc1,AUC(0-inf),[34],8.27 µM·h
same,MSD,Plasmodium berghei [1],15 days
same,half-life at 1 µM,[2],> 4.17 h
same,AUC(0-inf),[35],6.98 µM·h
same,IC50,Plasmodium falciparum [4],20 nM
same,solubility kinetic at 0.5 h,[7],< 1.6 µg/mL
same,clearance,[36],29 mL/min/kg
same,Activity,Plasmodium berghei [8],98%
same,Tmax,[37],3.25 h
same,bioavailability,[38],26%
same,Activity,Rattus norvegicus [39],Toxic
same,half-life,[40],11.3 h
same,half-life,[41],6 h
same,Activity,Plasmodium berghei [20],97.3%
same,MSD,Plasmodium berghei [22],9 days
same,fraction unbound,[24],0.038
same,Activity,Rattus norvegicus [42],Non-toxic
same,microsomal CLint at 1 µM,[28],< 7 µL/min/mg
same,Cmax,[43],1 µM
same,Vd,[44],8 L/kg
same,IC50,Plasmodium falciparum [45],19 nM
same,chromatographic logD,[33],3.4
